Literature values in US12553008B2, “Extracting and refining plant cuticular waxes from aqueous dispersion using temperature and pH adjustment” (JENA TRADING APS, priority 2019, dated 2026).
Where two headings read alike, the source gives them in different places.

What was measured:
[1] = not given; remark: listed apart in the source

Solubility of free fatty acids in water (at 30° C.) [mg/L at 30 °C]	pKa [1]	Compound	also measured
63	5.3	CCCCCCCCCCCC(=O)O [Lauric (C12 saturated), Lauric]	Solubility of free fatty acids in water (at 45° C.): 72 mg/L at 45 °C
24	4.9	CCCCCCCCCCCCCC(=O)O [Myristic (C14 saturated), Myristic]	Solubility of free fatty acids in water (at 60° C.): 33 mg/L at 60 °C

The next lines start with the compound.

Compound	Solubility of free fatty acids in water (at 30° C.) [mg/L at 30 °C]	pKa [1]	also measured
CCCCCCCC/C=C\CCCCCCCC(=O)O [Oleic (C18 mono-unsaturated), oleic acid]			Solubility of free fatty acids in water (in words, no temperature printed): Insoluble; Solubility of free fatty acids in water (in words, no temperature printed, listed as oleic): very low
CCCCCCCCCCCCCCCC(=O)O [Palmitic (C16 saturated), Palmitic]		4.75	
CCCCCCCCCCCCCCCCCC(=O)O [Stearic (C18 saturated), Stearic]		4.8-4.9	
